Patent publication US10131652B2, “Pyrimidinyloxy benzene derivatives as herbicides” (E. I. DU PONT DE NEMOURS AND COMPANY, priority 2014, dated 2018)

How the values were obtained:
Assay in all cases: Test D pre-/postemergence plant response
Format in all cases: in vivo
[1] = system: velvetleaf (Abutilon theophrasti)
Procedure, shortened: (§1)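 Two application timings were run together: preemergence onto seeded loam–sand pots, and postemergence onto 1- to 4-leaf plants (2 to 18 cm) in peat/vermiculite medium with starter nutrients. Formulation was a non-phytotoxic solvent with surfactant. Ratings, 0 to 100, were made visually versus controls after 13 to 15 greenhouse days.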

soybean (Glycine max) = system: soybean (Glycine max)
Procedure, shortened: as §1

[2] = system: large (Lg) crabgrass (Digitaria sanguinalis)
Procedure, shortened: as §1

[3] = system: morningglory (Ipomoea coccinea)
Procedure, shortened: as §1

[4] = system: ragweed (common ragweed, Ambrosia elatior)
Procedure, shortened: as §1

[5] = system: oilseed rape (Brassica napus)
Procedure, shortened: as §1

[6] = system: johnsongrass (Sorghum halepense)
Procedure, shortened: as §1

[7] = system: winter wheat (Triticum aestivum)
Procedure, shortened: as §1

[8] = system: yellow nutsedge (Cyperus esculentus)
Procedure, shortened: as §1

[9] = system: Italian ryegrass (Lolium multiflorum)
Procedure, shortened: as §1

[10] = system: barnyardgrass (Echinochloa crus-galli)
Procedure, shortened: as §1

[11] = system: pigweed (Amaranthus retroflexus)
Procedure, shortened: as §1

[12] = system: blackgrass (Alopecurus myosuroides)
Procedure, shortened: as §1

[13] = system: galium (catchweed bedstraw, Galium aparine)
Procedure, shortened: as §1

[14] = system: giant foxtail (Setaria faberii)
Procedure, shortened: as §1

corn (Zea mays) = system: corn (Zea mays)
Procedure, shortened: as §1

[15] = system: lambsquarters (Chenopodium album)
Procedure, shortened: as §1

[16] = system: waterhemp (common waterhemp, Amaranthus rudis)
Procedure, shortened: as §1

[17] = Postemergence, 16 g ai/ha, scale 0 to 100 (0 no effect, 100 complete control)
[18] = Postemergence, 31 g ai/ha, scale 0 to 100 (0 no effect, 100 complete control)
[19] = Postemergence, 62 g ai/ha, scale 0 to 100, 0 no effect, 100 complete control
[20] = Postemergence, 125 g ai/ha, scale 0 to 100, 0 no effect, 100 complete control
[21] = Preemergence, 16 g ai/ha, scale 0 to 100 (0 no effect, 100 complete control)
[22] = Preemergence, 31 g ai/ha, scale 0 to 100 (0 no effect, 100 complete control)
[23] = Preemergence, 62 g ai/ha, scale 0 to 100 (0 no effect, 100 complete control)

## Fc1cccc(Oc2ncc(Br)cn2)c1-c1cc(C(F)F)on1 [Compound 118]
[1]; [17]
  Velvetleaf plant response rating: 65
[1]; [18]
  Velvetleaf plant response rating: 75
[1]; [19]
  Plant response rating, Velvetleaf: 70
[1]; [20]
  Plant response rating, Velvetleaf: 85
[1]; Preemergence, 125 g ai/ha
  Plant response rating (scale 0 to 100), Velvetleaf: 100
[1]; [21]
  Plant response rating, Velvetleaf: 80
[1]; [22]
  Plant response rating, Velvetleaf: 70
[1]; [23]
  Plant response rating, Velvetleaf: 100
Soybean (Glycine max); [17]
  Soybean plant response rating: 75
Soybean (Glycine max); [18]
  Soybean plant response rating: 60
Soybean (Glycine max); [19]
  Plant response rating, Soybean: 60
Soybean (Glycine max); [20]
  Plant response rating, Soybean: 90
Soybean (Glycine max); Preemergence, 125 g ai/ha
  Plant response rating (scale 0 to 100), Soybean: 95
Soybean (Glycine max); [21]
  Plant response rating, Soybean: 80
Soybean (Glycine max); [22]
  Plant response rating, Soybean: 75
Soybean (Glycine max); [23]
  Plant response rating, Soybean: 80
[2]; [17]
  Crabgrass, Large plant response rating: 10
[2]; [18]
  Crabgrass, Large plant response rating: 10
[2]; [19]
  Plant response rating, Crabgrass, Large: 15
[2]; [20]
  Plant response rating, Crabgrass, Large: 20
[2]; Preemergence, 125 g ai/ha
  Plant response rating (scale 0 to 100), Crabgrass, Large: 100
[2]; [21]
  Plant response rating, Crabgrass, Large: 100
[2]; [22]
  Plant response rating, Crabgrass, Large: 100
[2]; [23]
  Plant response rating, Crabgrass, Large: 100
[3]; [17]
  Morningglory plant response rating: 85
[3]; [18]
  Morningglory plant response rating: 85
[3]; [19]
  Plant response rating, Morningglory: 85
[3]; [20]
  Plant response rating, Morningglory: 80
[3]; Preemergence, 125 g ai/ha
  Plant response rating (scale 0 to 100), Morningglory: 90
[3]; [21]
  Plant response rating, Morningglory: 30
[3]; [22]
  Plant response rating, Morningglory: 5
[3]; [23]
  Plant response rating, Morningglory: 85
[4]; [17]
  Ragweed plant response rating: 80
[4]; [18]
  Ragweed plant response rating: 45
[4]; [19]
  Plant response rating, Ragweed: 55
[4]; [20]
  Plant response rating, Ragweed: 85
[4]; Preemergence, 125 g ai/ha
  Plant response rating (scale 0 to 100), Ragweed: 85
[4]; [21]
  Plant response rating, Ragweed: 85
[4]; [22]
  Plant response rating, Ragweed: 20
[4]; [23]
  Plant response rating, Ragweed: 70
[5]; [17]
  Oilseed Rape plant response rating: 5
[5]; [18]
  Oilseed Rape plant response rating: 30
[5]; [19]
  Plant response rating, Oilseed Rape: 60
[5]; [20]
  Plant response rating, Oilseed Rape: 95
[5]; Preemergence, 125 g ai/ha
  Plant response rating (scale 0 to 100), Oilseed Rape: 100
[5]; [21]
  Plant response rating, Oilseed Rape: 85
[5]; [22]
  Plant response rating, Oilseed Rape: 98
[5]; [23]
  Plant response rating, Oilseed Rape: 100
[6]; [17]
  Johnsongrass plant response rating: 5
[6]; [18]
  Johnsongrass plant response rating: 5
[6]; [19]
  Plant response rating, Johnsongrass: 10
[6]; [20]
  Plant response rating, Johnsongrass: 45
[6]; Preemergence, 125 g ai/ha
  Plant response rating (scale 0 to 100), Johnsongrass: 100
[6]; [21]
  Plant response rating, Johnsongrass: 10
[6]; [22]
  Plant response rating, Johnsongrass: 70
[6]; [23]
  Plant response rating, Johnsongrass: 85
[7]; [17]
  Wheat plant response rating: 0
[7]; [18]
  Wheat plant response rating: 0
[7]; [19]
  Plant response rating, Wheat: 0
[7]; [20]
  Plant response rating, Wheat: 5
[7]; Preemergence, 125 g ai/ha
  Plant response rating (scale 0 to 100), Wheat: 5
[7]; [21]
  Plant response rating, Wheat: 0
[7]; [22]
  Plant response rating, Wheat: 0
[7]; [23]
  Plant response rating, Wheat: 0
[8]; [17]
  Nutsedge, Yellow plant response rating: 5
[8]; [18]
  Nutsedge, Yellow plant response rating: 5
[8]; [19]
  Plant response rating, Nutsedge, Yellow: 10
[8]; [20]
  Plant response rating, Nutsedge, Yellow: 10
[8]; Preemergence, 125 g ai/ha
  Plant response rating (scale 0 to 100), Nutsedge, Yellow: 65
[8]; [21]
  Plant response rating, Nutsedge, Yellow: 0
[8]; [22]
  Plant response rating, Nutsedge, Yellow: 0
[8]; [23]
  Plant response rating, Nutsedge, Yellow: 15
[9]; [17]
  Ryegrass, Italian plant response rating: 0
[9]; [18]
  Ryegrass, Italian plant response rating: 0
[9]; [19]
  Plant response rating, Ryegrass, Italian: 5
[9]; [20]
  Plant response rating, Ryegrass, Italian: 5
[9]; Preemergence, 125 g ai/ha
  Plant response rating (scale 0 to 100), Ryegrass, Italian: 60
[9]; [21]
  Plant response rating, Ryegrass, Italian: 0
[9]; [22]
  Plant response rating, Ryegrass, Italian: 5
[9]; [23]
  Plant response rating, Ryegrass, Italian: 65
[10]; [17]
  Barnyardgrass plant response rating: 10
[10]; [18]
  Barnyardgrass plant response rating: 20
[10]; [19]
  Plant response rating, Barnyardgrass: 20
[10]; [20]
  Plant response rating, Barnyardgrass: 30
[10]; Preemergence, 62 g ai/ha
  Plant response rating (scale 0 to 100), Barnyardgrass: 100
[10]; Preemergence, 125 g ai/ha
  Plant response rating (scale 0 to 100), Barnyardgrass: 100
[10]; [21]
  Plant response rating, Barnyardgrass: 10
[10]; [22]
  Plant response rating, Barnyardgrass: 60
[11]; [17]
  Pigweed plant response rating: 80
[11]; [18]
  Pigweed plant response rating: 95
[11]; [19]
  Plant response rating, Pigweed: 95
[11]; [20]
  Plant response rating, Pigweed: 98
[11]; Preemergence, 125 g ai/ha
  Plant response rating (scale 0 to 100), Pigweed: 100
[11]; [21]
  Plant response rating, Pigweed: 100
[11]; [22]
  Plant response rating, Pigweed: 100
[11]; [23]
  Plant response rating, Pigweed: 100
[12]; [17]
  Blackgrass plant response rating: 5
[12]; [18]
  Blackgrass plant response rating: 10
[12]; [19]
  Plant response rating, Blackgrass: 15
[12]; [20]
  Plant response rating, Blackgrass: 35
[12]; Preemergence, 125 g ai/ha
  Plant response rating (scale 0 to 100), Blackgrass: 90
[12]; [21]
  Plant response rating, Blackgrass: 0
[12]; [22]
  Plant response rating, Blackgrass: 10
[12]; [23]
  Plant response rating, Blackgrass: 60
[13]; [17]
  Galium plant response rating: 85
[13]; [18]
  Galium plant response rating: 90
[13]; [19]
  Plant response rating, Galium: 90
[13]; [20]
  Plant response rating, Galium: 98
[13]; Preemergence, 125 g ai/ha
  Plant response rating (scale 0 to 100), Galium: 95
[13]; [21]
  Plant response rating, Galium: 60
[13]; [22]
  Plant response rating, Galium: 98
[13]; [23]
  Plant response rating, Galium: 95
[14]; [17]
  Foxtail, Giant plant response rating: 5
[14]; [18]
  Foxtail, Giant plant response rating: 15
[14]; [19]
  Plant response rating, Foxtail, Giant: 10
[14]; [20]
  Plant response rating, Foxtail, Giant: 20
[14]; Preemergence, 125 g ai/ha
  Plant response rating (scale 0 to 100), Foxtail, Giant: 100
[14]; [21]
  Plant response rating, Foxtail, Giant: 98
[14]; [22]
  Plant response rating, Foxtail, Giant: 100
[14]; [23]
  Plant response rating, Foxtail, Giant: 100
Corn (Zea mays); [17]
  Corn plant response rating: 5
Corn (Zea mays); [18]
  Corn plant response rating: 10
Corn (Zea mays); [19]
  Plant response rating, Corn: 15
Corn (Zea mays); [20]
  Plant response rating, Corn: 15
Corn (Zea mays); Preemergence, 125 g ai/ha
  Plant response rating (scale 0 to 100), Corn: 30
Corn (Zea mays); [21]
  Plant response rating, Corn: 0
Corn (Zea mays); [22]
  Plant response rating, Corn: 5
Corn (Zea mays); [23]
  Plant response rating, Corn: 30
[15]; [17]
  Lambsquarters plant response rating: 75
[15]; [18]
  Lambsquarters plant response rating: 85
[15]; [19]
  Plant response rating, Lambsquarters: 90
[15]; [20]
  Plant response rating, Lambsquarters: 95
[15]; Preemergence, 125 g ai/ha
  Plant response rating (scale 0 to 100), Lambsquarters: 98
[15]; [21]
  Plant response rating, Lambsquarters: 90
[15]; [22]
  Plant response rating, Lambsquarters: 90
[15]; [23]
  Plant response rating, Lambsquarters: 95
[16]; [17]
  Waterhemp plant response rating: 85
[16]; [18]
  Waterhemp plant response rating: 90
[16]; [19]
  Plant response rating, Waterhemp: 95
[16]; [20]
  Plant response rating, Waterhemp: 98
[16]; Preemergence, 125 g ai/ha
  Plant response rating (scale 0 to 100), Waterhemp: 100
[16]; [21]
  Plant response rating, Waterhemp: 100
[16]; [22]
  Plant response rating, Waterhemp: 100
[16]; [23]
  Plant response rating, Waterhemp: 100
